Assays:
Experiment in all cases: relative viability (nuclei count vs DMSO), 5 days (fraction); higher = more cells survive
AZD5582 + Palbociclib = compound: C[C@@H](C(=O)N[C@@H](C1CCCCC1)C(=O)N2CCC[C@H]2C(=O)N[C@@H]3[C@@H](CC4=CC=CC=C34)OCC#CC#CCO[C@@H]5CC6=CC=CC=C6[C@@H]5NC(=O)[C@@H]7CCCN7C(=O)[C@H](C8CCCCC8)NC(=O)[C@H](C)NC)NC [AZD5582] + CC(=O)c1c(C)c2cnc(Nc3ccc(N4CCNCC4)cn3)nc2n(C2CCCC2)c1=O [Palbociclib] (partner 0.5 µM)
How it was run: (§1)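 Lung cancer cell lines in 1536-well plates were dosed by pin tool the day after seeding, either with one drug alone or with a fixed anchor-drug dose plus five library-drug doses (not always all listed) in √10 steps. After 5 days, cells were fixed and their nuclei stained in one step (final 0.05% Triton X-100, 1% formaldehyde, 1 ug/ml Hoechst), then counted on 4× images. Relative viability is the nuclei count in treated wells divided by that in vehicle wells. Values are medians of duplicate plates.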

[1] = compound: Cn1nnc2c(C(N)=O)ncn2c1=O [Temozolomide] + Nc1ncn([C@H]2C[C@H](O)[C@@H](CO)O2)c(=O)n1 [Decitabine] (partner 2 µM)
How it was run: as §1

[2] = compound: Cn1nnc2c(C(N)=O)ncn2c1=O [Temozolomide] + C[C@@H](Oc1cc(-c2cnn(C3CCNCC3)c2)cnc1N)c1c(Cl)ccc(F)c1Cl [Crizotinib] (partner 1 µM)
How it was run: as §1

AZD5582 + AZD7762 = compound: C[C@@H](C(=O)N[C@@H](C1CCCCC1)C(=O)N2CCC[C@H]2C(=O)N[C@@H]3[C@@H](CC4=CC=CC=C34)OCC#CC#CCO[C@@H]5CC6=CC=CC=C6[C@@H]5NC(=O)[C@@H]7CCCN7C(=O)[C@H](C8CCCCC8)NC(=O)[C@H](C)NC)NC [AZD5582] + NC(=O)Nc1cc(-c2cccc(F)c2)sc1C(=O)N[C@H]1CCCNC1 [AZD7762] (partner 0.2 µM)
How it was run: as §1

Row | Cell Line | relative viability (AZD5582 + Palbociclib; first compound 0.001581 µM) | relative viability (AZD5582 + Palbociclib; first compound 0.005 µM) | relative viability (AZD5582 + Palbociclib; first compound 0.01581 µM) | relative viability (AZD5582 + Palbociclib; first compound 0.05 µM) | relative viability ([1]; first compound 0.6325 µM) | relative viability ([1]; first compound 2 µM) | relative viability ([1]; first compound 6.325 µM) | relative viability ([1]; first compound 20 µM) | relative viability ([2]; first compound 0.6325 µM) | relative viability ([2]; first compound 2 µM) | relative viability ([2]; first compound 6.325 µM) | relative viability ([2]; first compound 20 µM) | relative viability (AZD5582 + AZD7762; first compound 0.001581 µM) | relative viability (AZD5582 + AZD7762; first compound 0.005 µM) | relative viability (AZD5582 + AZD7762; first compound 0.01581 µM) | relative viability (AZD5582 + AZD7762; first compound 0.05 µM) | relative viability ([1]; first compound 0.2 µM) | relative viability ([2]; first compound 0.2 µM)
1 | NCI-H2170 | 0.37 | 0.388 | 0.364 | 0.492 | 0.511 | 0.45 | 0.383 | 0.268 | 1.26 | 1.21 | 0.999 | 0.494 | 0.813 | 0.884 | 0.88 | 1.04 |  | 
2 | 201T | 0.375 | 0.357 | 0.316 | 0.43 | 0.877 | 0.866 | 0.821 | 0.843 | 1.09 | 1.08 | 0.834 | 0.986 | 0.479 | 0.579 | 0.556 | 0.447 | 0.832 | 1.02
3 | NCI-H1944 | 0.274 | 0.319 | 0.309 | 0.43 | 0.389 | 0.439 | 0.368 | 0.399 | 1.08 | 1.18 | 1.06 | 0.975 | 0.316 | 0.523 | 0.475 | 0.581 | 0.398 | 0.817
4 | H3255 | 0.29 | 0.306 | 0.302 | 0.318 | 0.652 | 0.812 | 0.514 | 0.187 | 0.822 | 0.795 | 0.798 | 0.179 | 0.805 | 0.779 | 0.842 | 0.773 |  | 
5 | NCI-H1437 | 0.266 | 0.307 | 0.278 | 0.31 | 0.54 | 0.586 | 0.61 | 0.572 | 1.03 | 0.968 | 0.995 | 0.999 | 1.1 | 1.14 | 1.09 | 1.14 | 0.604 | 0.94
6 | NCI-H2347 | 0.43 | 0.392 | 0.447 | 0.416 | 0.645 | 0.669 | 0.595 | 0.604 | 0.712 | 0.715 | 0.651 | 0.645 | 0.724 | 0.558 | 0.666 | 0.713 | 0.613 | 0.695
7 | NCI-H2087 | 0.188 | 0.23 | 0.225 | 0.241 | 0.314 | 0.322 | 0.281 | 0.299 | 0.74 | 0.892 | 0.803 | 0.871 | 1.21 | 1.27 | 1.17 | 1.13 | 0.306 | 0.898
8 | NCI-H727 | 0.612 | 0.647 | 0.635 | 0.614 | 0.876 | 0.938 | 0.848 | 0.838 | 0.73 | 0.812 | 0.791 | 0.763 | 0.538 | 0.744 | 0.651 | 0.833 |  | 0.876

Reference: the supplement of paper PMC10307832
